In patent US20230220480A1, “IRON-SCORE AND IN VITRO METHOD FOR IDENTIFYING HIGH RISK DLBCL SUBJECTS AND THERAPEUTIC USES AND METHODS” (CENTRE NATIONAL DE LA RECHERCHE SCIENTIFIQUE (CNRS), priority 2019, published 2023):
Where two headings read alike, the source gives them in different places.

Tests used:
DB and OCI-LY3 cells = assay: DNA fiber assay (replication fork progression); type: cell-based, human
Experimental: DB and OCI-LY3 cells were labeled with IdU, treated with vehicle, gemcitabine (10 μM) or Ironomycin (100 μM) and labeled with CIdU (30 minutes each), and then harvested for DNA fiber assay (A and B).
DB cells were pretreated or not by deoxynucleotides for 30 minutes, labeled with IdU, treated with vehicle, gemcitabine (10 μM) or Ironomycin (100 μM) and labeled with CIdU (30 minutes each), and then harvested for DNA fiber assay (C and D).
Boxplot represent median±interquartile ranges and dots represent outliers of track length (expressed in μm). Results represent at least 200 track measurements. * P<0.05, **** P<0.0001, NS: non-significant, Mann-Whitney test.
Eukaryotic cells contain numerous iron-requiring proteins such as iron-sulfur (Fe—S) cluster proteins, hemoproteins and ribonucleotide reductases that play key roles in DNA replication and require iron as a cofactor (Zhang, 2014). The inventors next monitored the effect of ironomycin on fork progression in DLBCL cells using DNA fiber analysis. To this end, DLBCL cell lines were pulse labeled with 10 μM IdU and 100 μM CIdU and the length of CIdU tracks was measured to estimate the distance covered by individual forks during the pulse. […] Gemcitabine was used as a positive control. […]

[1] = system: OCI-LY3 and DB cell lines
Description: The inventors further investigated the effect of Iron supplementation on the cell death induced by these treatments. Iron chelators concentrations were chosen according the maximal plasmatic concentration achievable in the patient (Nisbet-Brown et al., 2003).
Chaetocin was used as positive control of ROS production inhibited by GSH (Isham et al., 2007).

DLBCL cells = assay: Autophagy, LC3B II puncta; type: cell-based, human; details: 100 nM, 24H, P<0.0001
primary DLBCL cells = details: for reduction of the median number of viable primary DLBCL cells: N=5 patients, with CD40L
Experimental: Primary samples of DLBCL patients were cultured with their microenvironment recombinant CD40L in presence or absence of 50 nM and 100 nM of Ironomycin. Percentage of malignant DLBCL cells for each individual patients were analyzed by flow cytometry and expressed in % of control (A). […] The effect of Ironomycin alone or in combination with Doxorubicin on normal CD3+ cells was assessed by flow cytometry (C).
Cells are obtained from lymph nodes or blood of 5 patients with DLBCL. Cells from blood are obtained by density gradient separation and cells from lymph node are obtained with a tissues dissociator and qualified by Flow cytometry.
Cells are cultured in Gibco® Iscove's MDM (Glutamax) medium (#31980-022) with 20% FBS with antibiotitcs-antimicotics (Gibco Penicillin-streptomycin-amphotericin B 100X, #15240-096) at a density of 0.5×10^6 Cell/mL with 50 ng/mL of histidine-tagged CD40L (R&D System, 2706-CL) and 5 μg/mL of anti-histidine antibody R&D System, MAB050), Gibco® pyruvate 100X, #1136-039. Cells are seeded 24H after thawing and treated with various compounds during 72H.
Total cells were counted with trypan bleu and stained with the panel CD45 V500 (BD, #560777), Kappa FITC (Dako, F0434), CD19 PE-Cy7 (BD, #341113), Lambda PE (Dako, R0437), CD3 APC-H7 (BD, #641415), CD10 APC (BD, #332777) and CD20 V450 (BD, #655872) and analyzed by flow cytometry (Canto II cytometer, BD Pharmigen).Tumorous population cells were gated on CD19+, CD45+, CD20+, Kappa or lambda and non-tumorous population cells were gated on CD45+,CD19−, and T cells on CD45+, CD3+, CD19−.

WSU-DLCL-2 = assay: Cell viability assay (CellTiter-Glo, ATP quantification); type: cell-based, human; details: WSU-DLCL-2 (GCB), 96H
Description: (§1) The 16 DLBCL cell lines (U2932, OCI-LY-3, NU-DHL-1, OCI-LY-19, DB, SUDHL4, OCILY1, SUDHL5, DOHH2, SUDHL10, HT, RI-1, SU-DHL-6, NUDUL-1, WSU-DLCL-2 and OCI-LY-7) were purchased from the DSMZ (Leibniz-Institut DSMZ—Deutsche Sammlung von Mikroorganismen und Zellkulturen GmbH, Germany). They were maintained in RPMI-1640 (Gibco, Invitrogen), supplemented with 10% fetal bovine serum (PAA laboratory GmbH) for U2932, SUDHL-4, HT, DOHH2, SUDHL-10, RI-1, WSU-DLCL-2 cell lines, 20% FBS OCI-LY3, DB, SUDHL-5, NUDHL-1, SU-DHL-6, NUDUL-1 cell lines. OCI-LY1 and OCI-LY7 were cultured in IMDM (Gibco, Invitrogen), supplemented with 20% fetal bovine serum and OCI-LY19 was cultured in MEM alpha modified (Gibco, Invitrogen), supplemented with 20% fetal bovine serum. Cultures were maintained at 37° C. in a humidified atmosphere with 5% CO2.
(§2) DLBCL-derived cell lines were cultured for 4 days in 96-well flat-bottom microtiter plates in RPMI 1640 medium, 10% or 20% FCS (control medium) in the presence of various compounds. The number of viable cells in culture was determined using the CellTiter-Glo Luminescent Cell Viability Assay from Promega, Madison, Wis., USA using a Centro LB 960 luminometer (Berthold Technologies, Bad Wildbad, Germany).
(§3) This test is based on quantitation of the intracellular ATP present, which signals the presence of metabolically active cells. Data are expressed as the mean percentage of six replicates, normalized to the untreated control.
(§4) We extending the analyses to a large panel of 16 DLBCL cell lines. The panel of 16 DLBCL cell lines were incubated with increasing concentrations of Ironomycin or vehicle for 96H. Table 7 hereunder presents the inhibitory concentration 50% (IC50) of Ironomycin for the 16 DLBCL cell-lines.

OCI-LY7 = assay: as above; type: cell-based, human; details: OCI-LY7 (GCB), 96H
Description: as §1, §2, §3, §4

DOHH-2 = assay: as above; type: cell-based, human; details: DOHH-2 (GCB), 96H
Description: as §1, §2, §3, §4

OCI-LY1 = assay: as above; type: cell-based, human; details: OCI-LY1 (GCB), 96H
Description: as §1, §2, §3, §4

HT = assay: as above; type: cell-based, human; details: HT (GCB), 96H
Description: as §1, §2, §3, §4

NU-DUL-1 = assay: as above; type: cell-based, human; details: NU-DUL-1 (ABC), 96H
Description: as §1, §2, §3, §4

SU-DHL-4 = assay: as above; type: cell-based, human; details: SU-DHL-4 (GCB), 96H
Description: as §1, §2, §3, §4

NU-DHL-1 = assay: as above; type: cell-based, human; details: NU-DHL-1 (GCB), 96H
Description: as §1, §2, §3, §4

SU-DHL-6 = assay: as above; type: cell-based, human; details: SU-DHL-6 (GCB), 96H
Description: as §1, §2, §3, §4

RI-1 = assay: as above; type: cell-based, human; details: RI-1 (ABC), 96H
Description: as §1, §2, §3, §4

SU-DHL-10 = assay: as above; type: cell-based, human; details: SU-DHL-10 (GCB), 96H
Description: as §1, §2, §3, §4

OCI-LY19 = assay: as above; type: cell-based, human; details: OCI-LY19 (GCB), 96H
Description: as §1, §2, §3, §4

For `C#CCN[C@@H]1C=C[C@]2(O[C@H]([C@@H](CC)C(=O)[C@@H](C)[C@@H](O)[C@H](C)[C@@H]3O[C@@H]([C@@H](CC)C(=O)O)CC[C@@H]3C)[C@@H](C)C[C@H]2C)O[C@@]12CC[C@@](C)([C@H]1CC[C@](O)(CC)[C@H](C)O1)O2` [Ironomycin], the “effect of deoxynucleotide supplementation on replication fork delay” value (DB and OCI-LY3 cells; DB cells pretreated by deoxynucleotides for 30 minutes) was “partially reversed”, the “length of CIdU tracks compared to control cells” value (DB and OCI-LY3 cells; P<0.0001) was “significantly shorter” and the “caspase activation associated with apoptosis” value [1] was “activation of caspase-3 and −7”. The induction of apoptosis ([1]; Annexin V and PARP cleavage) was “induces apoptosis”, the “effect of iron supplementation on drug-induced apoptosis / cytotoxicity” value ([1]; Iron(III) chloride supplementation) was “did not affect” and the “inhibition of induced apoptosis by Oph-Q-VD pan-caspase inhibitor” value ([1]; P<0.001) was “partially inhibited”. For the same compound, the “LC3B II puncta (autophagy)” value (DLBCL cells) was “clear increase in LC3B II puncta”, the “reduction of the median number of viable primary DLBCL cells” value (primary DLBCL cells; 50 nM) was 63.1% and the “reduction of the median number of viable primary DLBCL cells” value (primary DLBCL cells; 100 nM) was 67.1%. The “toxicity in DLBCL cells compared to normal cells from the microenvironment” value (primary DLBCL cells; primary samples, 50 nM and 100 nM) was “higher toxicity”, the IC50 (WSU-DLCL-2) was 30.7 nM and the IC50 (OCI-LY7) was 51.6 nM. For the same compound, the IC50 (DOHH-2) was 91.5 nM, the IC50 (OCI-LY1) was 20.3 nM and the IC50 (HT) was 24.1 nM. The IC50 (NU-DUL-1) was 13.7 nM, the IC50 (SU-DHL-4) was 7.2 nM and the IC50 (NU-DHL-1) was 50.5 nM. For the same compound, the IC50 (SU-DHL-6) was 32.8 nM, the IC50 (RI-1) was 30.2 nM and the IC50 (SU-DHL-10) was 36.5 nM. For the same compound, the IC50 (OCI-LY19) was 46.9 nM.
